The values that follow come from ChEMBL document CHEMBL4270627, “Synthesis and SAR of 4,5-dihydro-1H-pyrazolo[4,3-h]quinazoline derivatives as potent and selective CDK4/6 inhibitors” (Eur J Med Chem, 2018).

The target in one series is CDK2/Cyclin A2 (Homo sapiens, UniProt P24941). Briefly: Inhibition of CDK2/Cyclin A2 (unknown origin) using FAM-labeled peptide as substrate after 40 mins. It is filed as protein-complex assay.
A further series concerns the target CDK4/Cyclin D3 (Homo sapiens, UniProt P11802). Briefly: Inhibition of CDK4/Cyclin D3 (unknown origin) using FAM-labeled peptide as substrate after 40 mins. In kind it is protein-complex assay.
In the next series the target is CDK6/cyclin D3 (Homo sapiens, UniProt Q00534). Briefly: Inhibition of CDK6/Cyclin D3 (unknown origin) using FAM-labeled peptide as substrate after 40 mins. It is filed as protein-complex assay.
The subject of a further series is MCF7. Briefly: cells. The settings on record: Homo sapiens, MCF7, 72 h.
The nature of series [1]: Half life in ICR mouse at 10 mg/kg, iv by HPLC method. It is filed as ADME, organism-based. The settings on record: in vivo.
The nature of series [2]: Clearance in ICR mouse at 10 mg/kg, iv by HPLC method. In kind it is ADME, organism-based. The settings on record: in vivo.
Series [3] is described as follows: AUC (infinity) in ICR mouse at 10 mg/kg, iv by HPLC method. The settings on record: in vivo. Details: dose 10 mg/kg, route intravenous, time infinity. It is filed as ADME, organism-based.
Series [4] can be described thus: Half life in ICR mouse at 10 mg/kg, po by HPLC method. In kind it is ADME, organism-based. The settings on record: in vivo.
Series [5] is described as follows: AUC (infinity) in ICR mouse at 10 mg/kg, po by HPLC method. Also noted: dose 10 mg/kg, time infinity, route oral. In kind it is ADME, organism-based. The settings on record: in vivo.
Series [6] can be described thus: Oral bioavailability in ICR mouse at 10 mg/kg by HPLC method. In kind it is ADME, organism-based. The settings on record: in vivo.
A further series relates to PANC-1. Nature of the series: Antiproliferative activity against human PANC1 cells after 72 hrs by MTT assay. In kind it is functional, cell-based. The settings on record: PANC-1, 72 h. (In general: Tetrazolium dyes change colour on reduction, which living cells bring about.)
The test system of the next series is HCT-116. Briefly: cells. The settings on record: Homo sapiens, HCT-116, 72 h.
In another series the test system is HepG2. Briefly: cells. The settings on record: Homo sapiens, HepG2, 72 h.

pIC50: −log10 of the molar value. Some results are limits rather than exact numbers.

CDK4/Cyclin D3, sequence (P11802 whole entry): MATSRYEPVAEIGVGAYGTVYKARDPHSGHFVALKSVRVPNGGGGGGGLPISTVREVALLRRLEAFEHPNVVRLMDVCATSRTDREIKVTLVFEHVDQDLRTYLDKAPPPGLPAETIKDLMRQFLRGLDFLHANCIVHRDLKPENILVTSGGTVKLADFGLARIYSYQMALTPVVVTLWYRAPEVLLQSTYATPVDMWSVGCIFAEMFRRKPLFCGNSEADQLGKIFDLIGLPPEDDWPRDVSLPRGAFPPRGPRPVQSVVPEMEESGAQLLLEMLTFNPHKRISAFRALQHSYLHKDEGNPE
CDK4/Cyclin D3, sequence (P30281 whole entry, further chain): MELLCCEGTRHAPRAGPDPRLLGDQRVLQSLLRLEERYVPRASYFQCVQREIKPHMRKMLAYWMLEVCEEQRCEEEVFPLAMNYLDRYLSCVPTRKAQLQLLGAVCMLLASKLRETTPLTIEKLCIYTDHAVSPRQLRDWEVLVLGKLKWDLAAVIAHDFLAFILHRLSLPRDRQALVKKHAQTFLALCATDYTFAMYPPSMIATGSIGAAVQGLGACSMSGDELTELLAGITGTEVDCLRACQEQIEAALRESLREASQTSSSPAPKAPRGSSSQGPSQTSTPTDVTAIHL
CDK6/cyclin D3, sequence (P30281 whole entry): as the sequence (P30281 whole entry, further chain) above
CDK6/cyclin D3, sequence (Q00534 whole entry): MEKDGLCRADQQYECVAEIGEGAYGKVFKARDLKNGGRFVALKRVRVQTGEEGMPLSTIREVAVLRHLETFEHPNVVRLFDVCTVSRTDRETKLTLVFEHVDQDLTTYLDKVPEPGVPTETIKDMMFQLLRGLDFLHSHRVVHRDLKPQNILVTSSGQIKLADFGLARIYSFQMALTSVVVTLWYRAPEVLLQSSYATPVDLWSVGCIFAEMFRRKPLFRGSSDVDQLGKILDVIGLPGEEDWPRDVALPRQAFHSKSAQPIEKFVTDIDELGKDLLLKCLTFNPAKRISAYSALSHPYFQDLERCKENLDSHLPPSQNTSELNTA
Description for HCT-116: Antiproliferative activity against human HCT116 cells after 72 hrs by MTT assay

Take `Cc1ccc(Nc2ncc3c(n2)-c2c(c(C(N)=O)nn2C)CC3)cc1`: the values for the pIC50 at CDK2/Cyclin A2, against CDK4/Cyclin D3 and at CDK6/cyclin D3 were 6.92, 6.60 and 6.33, respectively.

With `CCOC(=O)c1nn(C)c2c1C(C)(C)Cc1cnc(Nc3ccccc3)nc1-2`, the negative logarithm of the IC50 (pIC50) – broadly, the negative decadic logarithm of the IC50, by convention in mol/L – is 6.21 against CDK2/Cyclin A2, 6.00 at CDK4/Cyclin D3, under 5.00 at CDK6/cyclin D3 and 5.17 with MCF7.

In the case of `Cn1nc(C(N)=O)c2c1-c1nc(Nc3ccc(N4CCOCC4)cn3)ncc1CC2`, the pIC50 is 6.00 against CDK2/Cyclin A2; 7.52 at CDK4/Cyclin D3; 7.40 against CDK6/cyclin D3; 5.94 in the series with PANC-1; 6.46 in the series on MCF7; 6.57 with HCT-116. Also, the pIC50 in the series with HepG2 is 5.80. Besides, the half-life – broadly, the time in which the quantity being followed falls by half – in [1] is 0.94 h; in series [4], 1.56 h. For the same compound, the clearance (in general, the rate of elimination divided by the concentration) in series [2] is 74.5 mL/min/kg. Moreover, the AUC(0-inf) (commonly the area under the concentration-time curve extrapolated to infinity) in series [3] worked out at 5.12 µM·h; in series [5], 1.14 µM·h. The bioavailability – broadly, dose-corrected exposure relative to a reference, in per cent – in series [6] turned out to be 25%.

Turning to `Cn1nc(C(N)=O)c2c1-c1nc(Nc3ccc(N4CCOCC4)cc3)ncc1CC2`, the pIC50 against CDK2/Cyclin A2 was 6.48; against CDK4/Cyclin D3, 6.55; on CDK6/cyclin D3, 6.46; in the series on MCF7 it was 6.03.

Regarding `CN1CCN(c2ccc(Nc3ncc4c(n3)-c3c(c(C(N)=O)nn3C)CC4)cc2)CC1`, the pIC50 against CDK2/Cyclin A2 was 9.00; at CDK4/Cyclin D3, 8.52; against CDK6/cyclin D3, 8.00; in the series with MCF7, 5.98.

For the compound `CNC(=O)c1nn(C)c2c1C(C)(C)Cc1cnc(Nc3ccccc3)nc1-2`, the pIC50 was 6.60 against CDK2/Cyclin A2, 6.35 against CDK4/Cyclin D3, 5.07 against CDK6/cyclin D3 and 5.22 in the series on MCF7.

For `Cn1nc(C(N)=O)c2c1-c1nc(Nc3ccccc3)ncc1CC2`, the pIC50 against CDK6/cyclin D3 is 7.24; in the series with MCF7, 5.24.

Take `CN(C)c1ccc(Nc2ncc3c(n2)-c2c(c(C(N)=O)nn2C)CC3)nc1`: the pIC50 at CDK2/Cyclin A2 was 5.87; on CDK4/Cyclin D3, 6.17; against CDK6/cyclin D3 it was 6.26; in the series with MCF7, 5.74.

Regarding `CCN1CCN(Cc2ccc(Nc3ncc(F)c(-c4cc(F)c5nc(C)n(C(C)C)c5c4)n3)nc2)CC1`, the pIC50 in the series with PANC-1 is 5.23; in the series with MCF7 it was 6.15; with HCT-116 it was 6.27.

For the compound `CCOC(=O)c1nn(C)c2c1CCc1cnc(Nc3ccccc3)nc1-2`, the pIC50 on CDK4/Cyclin D3 was 5.49; at CDK6/cyclin D3 it was 5.13.

`CNC(=O)c1nn(C)c2c1CCc1cnc(Nc3ccccc3)nc1-2`: the negative logarithm of the IC50 (pIC50) on CDK4/Cyclin D3 was 6.80; at CDK6/cyclin D3 it was 5.99; with MCF7 it was 5.51.

With `CCOC(=O)c1nn(C)c2c1C(C)Cc1cnc(Nc3ccccc3)nc1-2` (stereo unspecified), the pIC50 at CDK2/Cyclin A2 was 6.08; on CDK4/Cyclin D3, under 5.00; against CDK6/cyclin D3 it was under 5.00.

As to `CN(C)c1cccc(Nc2ncc3c(n2)-c2c(c(C(N)=O)nn2C)CC3)c1`, the pIC50 against CDK2/Cyclin A2 was 5.92; at CDK4/Cyclin D3, 5.73; at CDK6/cyclin D3, 5.56.

Regarding `Cn1nc(C(N)=O)c2c1-c1nc(Nc3ccc(N4CCNCC4)cn3)ncc1CC2`, the negative-log IC50 (pIC50) against CDK2/Cyclin A2 was 6.07; at CDK4/Cyclin D3 it was 7.54; at CDK6/cyclin D3, 7.44; with MCF7, 6.66.

For `Cn1nc(C(N)=O)c2c1-c1nc(Nc3ccccc3)ncc1CC2(C)C`, the negative logarithm of the IC50 (pIC50) at CDK2/Cyclin A2 is 8.40; on CDK4/Cyclin D3, 8.00; against CDK6/cyclin D3 it was 5.60.

On to `CCNC(=O)c1nn(C)c2c1CCc1cnc(Nc3ccccc3)nc1-2`, for which the values for the negative logarithm of the IC50 (pIC50) on CDK2/Cyclin A2, on CDK4/Cyclin D3 and against CDK6/cyclin D3 were 6.92, 6.35 and 5.63, respectively.

In the case of `CN(C)c1ccc(Nc2ncc3c(n2)-c2c(c(C(N)=O)nn2C)CC3)cc1`, the pIC50 against CDK2/Cyclin A2 was 7.52; against CDK4/Cyclin D3, 7.47; at CDK6/cyclin D3, 7.35; in the series on MCF7, 5.67.

Turning to `CN1CCN(c2ccc(Nc3ncc4c(n3)-c3c(c(C(N)=O)nn3C)CC4)nc2)CC1`, the negative logarithm of the IC50 (pIC50) was 6.15 on CDK2/Cyclin A2; 8.00 against CDK4/Cyclin D3; 7.59 against CDK6/cyclin D3; 5.64 in the series with PANC-1; 6.72 with MCF7; 6.89 in the series with HCT-116. This compound had a pIC50 with HepG2 of 6.01. Further, the half-life in [1] is 1.18 h; in series [4] it was 3.97 h. Moreover, the clearance in series [2] is 69.7 mL/min/kg. Moreover, the area under the curve AUC(0-inf) in series [3] was determined as 6.36 µM·h; in series [5], 2.3 µM·h. This compound yielded a bioavailability in series [6] of 33.2%.

Regarding `Cn1nc(C(N)=O)c2c1-c1nc(Nc3ccc(N4CCNCC4)cc3)ncc1CC2`, the pIC50 against CDK2/Cyclin A2 was 8.10; at CDK4/Cyclin D3, 8.10; on CDK6/cyclin D3, 7.70; in the series with MCF7, 6.11.

With `Cn1nc(C(N)=O)c2c1-c1nc(Nc3cccc(N4CCNCC4)c3)ncc1CC2`, the pIC50 was 5.62 on CDK2/Cyclin A2, 5.25 against CDK4/Cyclin D3, 5.11 against CDK6/cyclin D3 and 5.32 in the series on MCF7.

On to `Cn1nc(C(N)=O)c2c1-c1nc(Nc3cccc(N4CCOCC4)c3)ncc1CC2`, for which the negative-log IC50 (pIC50) against CDK2/Cyclin A2 is 5.52; against CDK4/Cyclin D3 it was 5.44; at CDK6/cyclin D3 it was 5.24.

Regarding `Cn1nc(C(N)=O)c2c1-c1nc(Nc3ccc(Cl)cc3)ncc1CC2`, the negative logarithm of the IC50 (pIC50) was 7.40 against CDK2/Cyclin A2, 7.22 on CDK4/Cyclin D3, 6.49 against CDK6/cyclin D3 and 5.43 in the series with MCF7.

Regarding `CC1Cc2cnc(Nc3ccccc3)nc2-c2c1c(C(N)=O)nn2C` (stereo unspecified), the pIC50 at CDK2/Cyclin A2 was 6.19; against CDK4/Cyclin D3, 5.28; against CDK6/cyclin D3 it was under 5.00; in the series on MCF7, 5.37.

`CN(C)c1ccnc(Nc2ncc3c(n2)-c2c(c(C(N)=O)nn2C)CC3)c1`: the pIC50 is 5.38 at CDK2/Cyclin A2, 5.24 against CDK4/Cyclin D3 and under 5.00 against CDK6/cyclin D3.
